# Data reported in patent US20230310368A1, “MDMA ENANTIOMERS” (Mind Medicine, Inc., priority 2021, published 2023).
# Entries after “also recorded” stand apart in the source; their conditions may differ.
# Columns and labels:
# [1] = tested on: Fmr1 KO mice; assay: Three-Chamber Social Interaction Test (TCSIT); format: in vivo, mouse
# Method: (§1) Methods. The study was conducted in 10-week-old male Fmr1 KO mice. Animals were dosed per os with vehicle, R(−)-MDMA (8, 17 and 30 mg/kg) or SR-MDMA (8 mg/kg) with a minimum 3-day washout between doses. […] Compounds were administered 30 minutes prior to each behavioral test. Basic statistical analysis was performed. If more than 2 groups were compared with each other, significance was calculated by One-way or Two-way analysis of variance (ANOVA) followed by the Bonferroni post hoc test. In case of non-normally distributed data, significance was calculated by Kruskal-Wallis test followed by Dunn's multiple comparisons test.
# To measure sociability, animals were tested in the Three Chamber Social Interaction Test. It consisted of a habituation phase, an approach phase and a recognition phase (FIG. 5).
# On the testing day, the test animal was placed in the center of the box and was allowed to explore it for ten minutes with two empty stranger mouse cylinders on each side of the box for habituation.
# Social approach: After habituation, the mouse was removed from the box, the box was cleaned with 70% Isopropanol and dried with a hand fan. A sex-matched stranger mouse was placed into the mouse cylinder in the left chamber and the test animal was placed in the center of the box again for ten minutes.
# Social recognition: After the social approach, mice were immediately tested for social recognition. The already known mouse stayed in the left chamber and a new mouse was placed under the cylinder in the right chamber. The test mouse was again placed in the middle chamber and, for 10 minutes, it was measured how much time it spent in each chamber and how much time it spent sniffing each mouse. Healthy mice will spend more time with the new mouse due to novelty. Socially disturbed mice might not recognize the already known mouse and spend therefore similar amounts of time with each mouse.
# Both social approach and social recognition were recorded and analyzed by using Noldus Ethovision 8.5.
# (§2) Methods. The study was conducted in 96 10-week-old male Fmr1 KO mice. Animals were dosed orally with vehicle, R(−)-3,4-MDMA (8, 17 and 30 mg/kg), S-(+)-3,4-MDMA (8 mg/kg) or (±)-3,4-MDMA (8 mg/kg) with a minimum 3-day washout between doses. In the Three-Chamber Social Interaction Test (TCSIT), a stranger animal was placed in one of two wire cylinders in the testing area. The time spent in each of three arenas: the neutral arena, the stranger arena or the empty arena, was assessed (FIG. 5). Animals were evaluated in the Open Field Test (OFT) measuring hyperactivity, locomotor activity, thigmotaxis and grooming duration (FIGS. 7A-7B). In the Ultrasonic Vocalization (USV) test, male mice were exposed to fresh urine from females in the estrous cycle. Vocal emissions were recorded for 5 minutes and analyzed. Compounds were administered 30 minutes before each behavioral test. Significance was calculated by One-way analysis of variance followed by the Bonferroni post hoc test. In non-normally distributed data, Kruskal-Wallis test followed by Dunn's multiple comparisons test was applied.
# [2] = tested on: Fmr1 KO mice; assay: Ultrasonic Vocalization (USV) test; format: in vivo, mouse; settings: any dose, oral, 5 minutes recording, P<0.001
# Method: as §1
# Adult male mice emit Ultrasonic Vocalization (USV) under selected experimental conditions, upon encountering a sexually receptive female or female urine. These vocal emissions are considered an index of emotionality, social interest, and motivation.
# To induce the estrous cycle in female mice, mice were subcutaneously treated with 50 μl of ß-estradiol 48 hours prior to testing (time sensitive). […]
# On the test day, study animals were habituated in a separate soundproof room. Before recording, each mouse was separated from its home cage, placed in another cage that was covered with fresh bedding, and moved to the next soundproof room equipped with an UltraSoundGate Condenser Microphone (CM16; Avisoft Bioacoustics, Berlin, Germany), connected via an Avisoft UltraSoundGate 416 USB Audio device (Avisoft Bioacoustics) to a personal computer, where acoustic data were recorded with a sampling rate of 250,000 Hz in 16-bit format. […] Vocal emission was recorded for 5 minutes.
# For acoustical analysis, recordings were transferred to SASLab Pro (Avisoft Bioacoustics) and a fast Fourier transform was conducted (512 FFT length, 100% frame, Hamming window, and 75% time window overlap). […] The total number of vocalizations and the latency to initiate the first call were extracted and evaluated for the whole 5 minutes of recording.
# Methods. […] The time spent in each of three arenas: the neutral arena, the stranger arena or the empty arena, was assessed (FIG. 5). […]
# [3] = tested on: Fmr1 KO mice; assay: Open Field Test (OFT) including grooming evaluation; format: in vivo, mouse
# Method: as §1
# Spontaneous activity and anxiety was assessed in the Open Field by evaluating the following parameters: hyperactivity [s], activity [s], distance [m], rearings [s], rearings [n] and grooming behavior. For that purpose, a Plexiglas Open Field (48×48 cm) in combination with a computerized video tracking system (Noldus Ethovision XT 14) was used (FIGS. 7A-7B).
# The mice were brought to the room at least 45 minutes before the start of the testing. Each test session lasted for 5 minutes to check the mice's behavior in the new surroundings, as the first minutes of the Open Field test are the most suitable to display the exploration behavior of the animals. After the testing session, the number of fecal boluses was counted, as a measure of emotionality. The Open Field was cleaned with 70% Isopropanol after each mouse to get rid of odor traces. Testing was performed under standard room lighting conditions during the light phase of the circadian cycle.
# as §2
# [4] = tested on: dopamine; settings: background, receptor studies and limited pre-clinical evidence; cited from earlier work
# [5] = background, limited pre-clinical evidence; cited from earlier work
# [6] = oral, 30 minutes before test, R compared to S or racemate P<0.001
SMILES,Arena Frequency with the stranger ([1]; 8 mg/kg oral),Interaction Duration with the stranger ([1]; 8 mg/kg oral),Interaction Index with the stranger ([1]; 8 mg/kg oral),interaction with the stranger and empty chamber vs. vehicle-treated animals ([1]; 8 mg/kg oral),number of vocalizations [2],"Arena Frequency with the stranger ([1]; 30 mg/kg oral, P<0.001)","interaction with the stranger and empty chamber vs. vehicle-treated animals ([1]; all three doses (8, 17 and 30 mg/kg) oral, P<0.01)","effect on social interaction compared with S-(+)-3,4-MDMA or (±)-3,4-MDMA ([1]; conclusion of the study)","social approach and interaction ([1]; male Fmr1 KO mice, oral 8, 17 and 30 mg/kg, 30 minutes before test)",number of grooming occasions ([3]; 30 mg/kg oral),"distance moved [3, 6]","hyperactivity [3, 6]","number of grooming occasions ([3]; oral, R 8, 17, 30 mg/kg, S and racemate 8 mg/kg)",efficacy as a releaser of dopamine [4],hyperthermia [5]
"CNC(C)Cc1ccc2c(c1)OCO2 (racemic) [(±)-3,4-MDMA, S,R(±)-3,4-methylenedioxymethamphetamine]",no effect,no effect,no effect,efficacious only for interaction with the stranger,significantly reduced,–,–,–,–,–,–,–,–,–,–
"CN[C@H](C)Cc1ccc2c(c1)OCO2 [R(−)-3,4-MDMA, R(−)-3,4-methylenedioxymethamphetamine]",–,–,–,–,significantly reduced,statistically significant,significant difference,more potent,dose-dependently increased,active,significantly lesser effect,significantly lesser effect; also recorded: significantly reduced hyperactivity effects,"less efficacious than S-(+)-3,4-MDMA or (±)-3,4-MDMA",low efficacy,does not produce hyperthermia
"CN[C@@H](C)Cc1ccc2c(c1)OCO2 [S-(+)-3,4-MDMA]",no effect,no effect,no effect,not associated with significant changes,significantly reduced,–,–,–,–,–,–,–,–,–,–
